Experimental data reported in patent US11884673B2, “Modulators of ion channel receptors and uses thereof” (BIONOMICS LIMITED, priority 2018, dated 2024).

What follows are compounds tested against T1, hNav1.7 (Homo sapiens, UniProt Q15858) (assay: hNav1.7 inactivated state (SIS) automated patch clamp electrophysiology (Patchliner, whole-cell)). Details: Assay Conc. 10 uM; inactivated state protocol; hNav1.7 stably expressed in human embryonic kidney cells; read-out: hNav1.7 SIS (% inh).
T1 construct: expressed in transfected cells
Assay type: cell-based
Procedure: hNav1.7, hNav1.2, hNav1.3, hNav1.4, hNav1.5, hNav1.6 were stably expressed in human embryonic kidney cells and kept under constant antibiotic selection. For in vitro assays, cells were maintained in appropriate growth medium at 37° C. and 5% CO2 in a humidified incubator.
Nav1.x expressing cells plated in T-25 flasks for 2-3 days prior to use and grown to 70-85% confluence were briefly trypsinized to obtain a single cell suspension of ˜2-3×10^6 cells/ml. All electrophysiological recordings were performed at ambient temperature (21-23° C.) using automated patch clamp (Patchliner, Nanion Technologies GmbH) in the whole-cell configuration using the following solutions: Internal solution contained (in mM): CsCl (50), NaCl (10), CsF (60), EGTA (20), HEPES (10), pH 7.2 KOH, 285 mOsmol·Kg^−1. External (bath) solution contained (in mM): NaCl (140), KCl (4), MgCl2 (1), CaCl2) (2) D-Glucose monohydrate (5), HEPES (10), pH 7.4 NaOH, 298 mOsmol·kg^−1.
The following voltage protocols were used to assess different Nav1.x channel states:
For each Nav1.x channel, a steady state inactivation curve was obtained in order to calculate the voltage resulting in 50% channel inactivation (V0.5inact). A 2 pulse protocol was then employed in which cells held at a voltage corresponding to 20 mV more negative to V0.5 inact were depolarised to −10 mV for 20 ms before returning to the previous holding voltage. This test pulse constituted P1 and represents 100% available (non-inactivated) Nav1.x channels. The same cell was then depolarised for 8 s to a voltage corresponding to 7 mV more positive than V0.5inact in order to cause channel inactivation. Following a brief (2 ms) hyperpolarising voltage step to −120 mV (to reset the activation gate), cells were again subjected to a depolarising test pulse (P2) to −10 mV for 20 ms before returning to the holding potential. Each sequence was repeated 6× at 30 s intervals. Using this protocol, control P2 current amplitudes (representing the % channels available following 8 s inactivation) was ˜50% of control P1 current amplitude. 6 repetitions of this recording sequence were made in the control bath solution and then again 2 minutes after compound addition and thereafter at increasing compound concentrations. % inhibition was calculated by (1−(P2drug at repetition 6/P2control at repetition 6))*100. Data were either presented as % block by a single concentration of drug or an estimated eIC50 determined from 2-3 drug concentrations which was determined by fitting data with a sigmoidal dose response curve (variable slope) using GraphPad Prism software (Version 6.0).
All compounds were dissolved in DMSO to 20 mM initially. Subsequent dilutions in DMSO were made to achieve 200× final bath concentrations. DMSO compound stocks were finally diluted 1/200 in bath solution just prior to assay resulting in a final DMSO concentration of 0.5% which was not found to affect control current amplitude.

T1 sequence (Q15858 whole entry): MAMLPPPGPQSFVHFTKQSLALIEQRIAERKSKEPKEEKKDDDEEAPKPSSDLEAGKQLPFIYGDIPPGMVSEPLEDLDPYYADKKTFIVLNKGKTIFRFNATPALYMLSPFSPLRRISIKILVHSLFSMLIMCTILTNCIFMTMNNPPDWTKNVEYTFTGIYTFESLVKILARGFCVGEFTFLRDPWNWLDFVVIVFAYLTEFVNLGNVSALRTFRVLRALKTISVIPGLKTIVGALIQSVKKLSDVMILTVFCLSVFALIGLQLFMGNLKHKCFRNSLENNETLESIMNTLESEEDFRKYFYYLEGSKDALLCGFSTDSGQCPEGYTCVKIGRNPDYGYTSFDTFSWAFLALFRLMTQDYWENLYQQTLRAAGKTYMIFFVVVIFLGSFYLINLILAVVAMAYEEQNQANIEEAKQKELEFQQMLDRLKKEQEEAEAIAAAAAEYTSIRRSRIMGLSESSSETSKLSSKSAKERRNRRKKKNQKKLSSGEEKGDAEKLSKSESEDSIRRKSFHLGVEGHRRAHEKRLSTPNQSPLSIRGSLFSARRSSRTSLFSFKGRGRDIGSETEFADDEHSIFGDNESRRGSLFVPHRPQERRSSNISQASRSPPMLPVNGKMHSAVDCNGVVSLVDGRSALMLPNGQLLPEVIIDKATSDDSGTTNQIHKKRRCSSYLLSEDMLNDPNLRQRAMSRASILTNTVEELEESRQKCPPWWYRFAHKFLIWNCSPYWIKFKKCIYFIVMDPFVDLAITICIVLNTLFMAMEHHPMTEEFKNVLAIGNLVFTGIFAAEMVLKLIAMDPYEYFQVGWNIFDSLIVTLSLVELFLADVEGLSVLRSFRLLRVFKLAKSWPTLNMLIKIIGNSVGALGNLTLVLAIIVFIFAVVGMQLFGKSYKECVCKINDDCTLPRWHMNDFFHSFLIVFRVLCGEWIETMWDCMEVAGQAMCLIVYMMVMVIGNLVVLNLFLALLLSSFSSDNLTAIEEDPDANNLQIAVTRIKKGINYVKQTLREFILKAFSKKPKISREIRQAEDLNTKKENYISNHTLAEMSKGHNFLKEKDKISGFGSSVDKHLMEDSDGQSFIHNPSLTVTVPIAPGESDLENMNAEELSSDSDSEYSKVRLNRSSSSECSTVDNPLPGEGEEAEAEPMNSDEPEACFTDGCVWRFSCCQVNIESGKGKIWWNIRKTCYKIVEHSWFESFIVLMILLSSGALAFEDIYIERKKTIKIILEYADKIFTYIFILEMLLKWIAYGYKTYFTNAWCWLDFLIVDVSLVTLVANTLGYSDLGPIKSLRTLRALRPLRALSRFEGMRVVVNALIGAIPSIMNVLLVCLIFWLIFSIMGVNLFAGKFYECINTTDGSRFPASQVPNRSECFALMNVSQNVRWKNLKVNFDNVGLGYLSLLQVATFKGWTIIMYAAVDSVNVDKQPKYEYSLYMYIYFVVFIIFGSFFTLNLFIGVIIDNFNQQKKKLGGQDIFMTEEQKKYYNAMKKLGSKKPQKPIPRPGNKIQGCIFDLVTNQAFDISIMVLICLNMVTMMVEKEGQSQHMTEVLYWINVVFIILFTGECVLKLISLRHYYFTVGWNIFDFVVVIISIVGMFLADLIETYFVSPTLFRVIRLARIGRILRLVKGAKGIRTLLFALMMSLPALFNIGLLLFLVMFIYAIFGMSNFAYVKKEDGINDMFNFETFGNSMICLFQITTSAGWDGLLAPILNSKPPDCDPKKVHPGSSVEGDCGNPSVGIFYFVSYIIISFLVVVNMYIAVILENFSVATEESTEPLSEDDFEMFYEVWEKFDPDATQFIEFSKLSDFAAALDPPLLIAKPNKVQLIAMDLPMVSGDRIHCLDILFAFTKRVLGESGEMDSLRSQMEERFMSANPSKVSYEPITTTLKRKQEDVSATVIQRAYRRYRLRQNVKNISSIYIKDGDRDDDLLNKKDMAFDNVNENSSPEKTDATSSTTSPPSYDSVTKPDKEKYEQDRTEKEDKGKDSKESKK

inhibition at 10 µM [%] | Structure (SMILES)
80 | O=C(NCc1cccc(OCc2ccccc2F)c1)c1cccc2ccnn12 [Number 50]
53 | Cn1cccc(C(=O)NCc2cccc(OCc3ccccc3F)c2)c1=O [Number 57]
49 | O=C(NCc1cccc(OCc2ccccc2F)c1)c1cccc2cncn12 [Number 60]
50 | O=C(NCc1cccc(OCc2ccccc2F)c1)c1cn2ncccc2n1 [Number 62]
42 | O=C(NCc1cccc(OCc2ccccc2F)c1)c1cn2cccnc2n1 [Number 63]
48 | O=C(NCc1cccc(OCc2ccccc2F)c1)c1cccc2ncnn12 [Number 64]
30 | Cn1ccc(C(=O)NCc2cccc(OCc3ccccc3F)c2)cc1=O [Number 66]
34 | O=C(NCc1cccc(OCc2ccccc2F)c1)c1cn2ccncc2n1 [Number 67]
92 | O=C(NCc1cccc(OCc2ccccc2F)c1)c1cc2cccn2cn1 [Number 69]
66 | O=C(NCc1cccc(OCc2ccccc2F)c1)c1ccn2cnnc2c1 [Number 70]
66 | Cc1cn2ccc(C(=O)NCc3cccc(OCc4ccccc4F)c3)cc2n1 [Number 71]
100 | Cc1cn2ccc(C(=O)NCc3cc(OCc4ccccc4F)ccc3F)cc2n1 [Number 72]
47 | O=C(NCc1cccc(OCc2ccccc2F)c1)c1cnc2ccccn12 [Number 73]
58 | O=C(NCc1cc(OCc2ccccc2F)ccc1F)c1ccn2cnnc2c1 [Number 74]
74 | Cn1cc(CC(=O)NCc2cccc(OCc3ccccc3F)c2)c2ccccc21 [Number 75]
44 | O=C(Cc1cn2ccccc2n1)NCc1cccc(OCc2ccccc2F)c1 [Number 76]
70 | O=C(NCc1cccc(OCc2ccccc2F)c1)c1cccn2ncnc12 [Number 77]
42 | O=C(NCc1cccc(OCc2ccccc2F)c1)c1cccn2nnnc12 [Number 79]
30 | O=C(NCc1cccc(OCc2ccccc2F)c1)c1ccn2ncnc2c1 [Number 80]
42 | O=C(NCc1cc(OCc2ccccc2F)ccc1F)c1ccn2ncnc2c1 [Number 82]
59 | Cc1cnc2cc(C(=O)NCc3cccc(OCc4ccccc4F)c3)ccn12 [Number 83]
45 | O=C(NCc1cccc(OCc2ccccc2F)c1)c1ccc2cncn2c1 [Number 84]
92 | O=C(NCc1cccc(OCc2ccccc2F)c1)c1cccn2cncc12 [Number 86]
49 | O=C(NCc1cccc(OCc2ccccc2F)c1)c1ccc2nncn2c1 [Number 88]

Second part, the compound before the results:

Structure (SMILES) | inhibition at 10 µM [%]
CC(C)(NC(=O)c1ccn2ccnc2c1)c1cccc(OCc2ccccc2F)c1 [Number 11] | 45
O=C(NCc1cc(OCc2ccccc2F)ccc1F)c1nccn2ccnc12 [Number 48] | 100
O=C(NCc1cc(OCc2ccccc2F)ccc1F)c1cccc2nncn12 [Number 49] | 38
CC(C)(Oc1cccc(CNC(=O)c2cccn3cnnc23)c1)c1ccccc1F [Number 51] | 36
CC(C)(Oc1cccc(CNC(=O)c2cccn3ccnc23)c1)c1ccccc1F [Number 52] | 83
COC[C@@H](C)N(Cc1cccc(OCc2ccccc2F)c1)C(=O)c1cn2ccccc2n1 [Number 53] | 74
COC[C@H](C)N(Cc1cccc(OCc2ccccc2F)c1)C(=O)c1cn2ccccc2n1 [Number 54] | 55
Cn1ccc(C(=O)NCc2cc(OCc3ccccc3F)ccc2F)cc1=O [Number 55] | 49
Cn1cccc(C(=O)NCc2cc(OCc3ccccc3F)ccc2F)c1=O [Number 58] | 52
O=C(NCc1cc(OCc2ccccc2F)ccc1F)c1cn2cccnc2n1 [Number 59] | 42
O=C(NCc1cc(OCc2ccccc2F)ccc1F)c1cn2ncccc2n1 [Number 68] | 53
O=C(NCc1cc(OCc2ccccc2F)ccc1F)c1cccn2ncnc12 [Number 78] | 83
O=C(NCc1cc(OCc2ccccc2F)ccc1F)c1cccn2nnnc12 [Number 81] | 88
O=C(NCc1cc(OCc2ccccc2F)ccc1F)c1ccc2cncn2c1 [Number 85] | 55
O=C(NCc1cc(OCc2ccccc2F)ccc1F)c1cccn2cncc12 [Number 87] | 66
O=C(NCc1cc(OCc2ccccc2F)ccc1F)c1cccn2ccnc12 [Number 89] | 99

Same assay, conditions: estimated eIC50 from 2-3 drug concentrations; inactivated state protocol; hNav1.7 stably expressed in human embryonic kidney cells

IC50 [µM] | Structure (SMILES)
1.3 | O=C(NCc1cccc(OCc2ccccc2F)c1)c1nccn2ccnc12 [Number 2]
2.7 | O=C(NCc1cccc(OCc2ccccc2F)c1)c1cccn2ccnc12 [Number 3]
1.3 | O=C(NCc1cc(OCc2ccccc2F)ccc1F)c1ccn2ccnc2c1 [Number 5]
8.9 | O=C(NCc1cccc(OCc2ccccc2F)c1)c1ccn2ccnc2c1 [Number 9]
3.3 | O=C(NCc1cccc(OCc2ccccc2F)c1)c1cccn2cnnc12 [Number 10]

The remaining lines, values behind:

Structure (SMILES) | IC50 [µM]
O=C(NCc1cc(OCC2CCCCC2)ccc1F)c1ccn2ccnc2c1 [Number 1] | 0.41
O=C(NCc1cc(OCc2ccccc2F)ccc1F)c1cccn2cnnc12 [Number 4] | 1.1
O=C(NCc1cc(OCC2CCCCC2)ccc1F)c1cccn2cnnc12 [Number 6] | 0.13
CC(C)(NC(=O)c1cccn2cnnc12)c1cccc(OCC2CCCCC2)c1 [Number 7] | 4.8
O=C(NCc1cccc(OCC2CCCCC2)c1)c1cccn2cnnc12 [Number 8] | 0.91
CC(C)(NC(=O)c1ccn2ccnc2c1)c1cccc(OCC2CCCCC2)c1 [Number 12] | 0.51
O=C(NCc1cc(OCc2ccccc2F)ccc1F)c1cn2ccccc2n1 [Number 56] | 2.2
CN(Cc1cccc(OCc2ccccc2F)c1)C(=O)c1cn2ccccc2n1 [Number 61] | 1.6
O=C(NCc1cc(OCc2ccccc2F)ccc1F)c1cccc2ncnn12 [Number 65] | 10
